Experimental findings from patent publication US20060134693A1, “Olfactory cyclic nucleotide-gated channel cell-based assays to identify T1R and T2R taste modulators” (priority 2001, published 2006) are described below.

Experiment [1] deals with untransfected HEK 293-oCNGC cells. As to the kind of experiment: Isoproterenol-induced calcium influx in untransfected HEK 293-oCNGC cells. Format: cell-based, human. The conditions noted are these: cells not expressing hT1R2/hT1R3; increasing concentrations; 200 nM isoproterenol; FIG. 14. As for the experimental part:
Delta F/F valves were normalized to the fluorescence obtained after stimulation with 200 nM isoproterenol. Each value corresponds to the mean ± SD of a triplicate determination.
(§1) Modulation of oCNG activity by taste receptors is measured in a cell-based assay that detects changes in intracellular calcium (as described in earlier examples). In brief, human embryonic kidney cells stably expressing the OCNC1 and are β1b subunits of oCNGC are transiently or stably transfected with T1R or T2R receptor plasmids. Transfected cells are seeded into 384-well culture plates, and functional expression is allowed to proceed for about 24 to 48 hours. The cells are then incubated with a calcium specific fluorescent dye (Fluo-4 or Fura-2, available from Molecular Probes) that provides for fast, simple and reliable fluorimetric detection of changes in calcium concentration within the cell.
An experiment was conducted to confirm that the effects of the sweeteners on calcium influx requires the expression of the sweet receptor.
In FIG. 14, it is shown that increasing concentrations of the tested sweeteners had no inhibitory effect on isoproterenol-induced calcium influx in untransfected HEK 293—oCNGC cells. Again, Delta F/F values were normalized to the fluorescence obtained after stimulation with 200 nM isoproternol and each value component to the mean ± SD of a triplicate determination).

The target in experiment [2] is T1, human T1R2/T1R3 sweet taste GPCR (Homo sapiens, UniProt Q7RTX0+Q8TE23).
T1 construct: expressed in transfected cells; host or cells: CNG136, derived from HEK293
T1 sequence (Q8TE23 20-839): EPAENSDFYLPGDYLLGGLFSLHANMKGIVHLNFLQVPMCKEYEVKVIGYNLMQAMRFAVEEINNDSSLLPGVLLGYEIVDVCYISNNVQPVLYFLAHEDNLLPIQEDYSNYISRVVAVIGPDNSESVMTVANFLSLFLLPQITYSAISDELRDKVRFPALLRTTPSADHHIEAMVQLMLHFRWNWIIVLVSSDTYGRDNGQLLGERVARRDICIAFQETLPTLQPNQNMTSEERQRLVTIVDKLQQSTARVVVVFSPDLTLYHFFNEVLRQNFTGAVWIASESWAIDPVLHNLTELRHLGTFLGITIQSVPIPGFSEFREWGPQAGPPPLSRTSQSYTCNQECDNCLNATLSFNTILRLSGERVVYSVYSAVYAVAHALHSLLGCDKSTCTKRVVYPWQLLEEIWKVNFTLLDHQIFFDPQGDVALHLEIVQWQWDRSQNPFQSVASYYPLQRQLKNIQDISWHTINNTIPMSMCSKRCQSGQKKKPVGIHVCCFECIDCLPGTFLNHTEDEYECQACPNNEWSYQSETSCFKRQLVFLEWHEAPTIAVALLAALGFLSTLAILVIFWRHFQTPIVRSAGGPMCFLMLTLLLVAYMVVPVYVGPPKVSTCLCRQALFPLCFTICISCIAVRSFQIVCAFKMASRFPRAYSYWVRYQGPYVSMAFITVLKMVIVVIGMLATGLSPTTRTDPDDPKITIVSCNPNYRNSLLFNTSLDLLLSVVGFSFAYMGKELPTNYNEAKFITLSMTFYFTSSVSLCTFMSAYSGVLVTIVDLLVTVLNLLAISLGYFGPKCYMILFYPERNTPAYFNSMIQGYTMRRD
T1 sequence (Q7RTX0 21-852): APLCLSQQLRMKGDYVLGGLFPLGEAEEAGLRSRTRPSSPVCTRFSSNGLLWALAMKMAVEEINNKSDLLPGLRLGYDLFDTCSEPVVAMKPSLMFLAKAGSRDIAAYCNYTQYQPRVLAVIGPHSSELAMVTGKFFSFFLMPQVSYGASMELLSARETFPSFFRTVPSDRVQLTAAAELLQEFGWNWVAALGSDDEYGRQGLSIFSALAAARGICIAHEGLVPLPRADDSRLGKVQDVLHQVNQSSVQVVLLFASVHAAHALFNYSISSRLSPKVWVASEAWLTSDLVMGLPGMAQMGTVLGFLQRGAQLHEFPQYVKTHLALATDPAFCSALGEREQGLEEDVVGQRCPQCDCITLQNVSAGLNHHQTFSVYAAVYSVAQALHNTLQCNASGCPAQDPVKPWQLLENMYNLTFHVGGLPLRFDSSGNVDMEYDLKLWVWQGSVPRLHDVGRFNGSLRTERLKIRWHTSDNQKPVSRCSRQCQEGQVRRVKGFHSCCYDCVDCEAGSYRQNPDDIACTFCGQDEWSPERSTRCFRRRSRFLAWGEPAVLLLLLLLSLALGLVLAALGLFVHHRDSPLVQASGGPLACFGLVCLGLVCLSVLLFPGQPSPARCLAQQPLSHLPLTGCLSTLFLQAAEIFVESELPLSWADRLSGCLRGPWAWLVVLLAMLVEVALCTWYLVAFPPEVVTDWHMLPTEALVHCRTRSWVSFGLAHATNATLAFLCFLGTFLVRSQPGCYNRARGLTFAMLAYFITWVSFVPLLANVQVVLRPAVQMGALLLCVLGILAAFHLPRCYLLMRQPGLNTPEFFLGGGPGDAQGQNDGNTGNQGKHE
The experiment is described as follows: CNG136 cell line (HEK293-derived, co-expressing human CNG channel and human T1R2/T1R3), FLIPR384 response. The conditions noted are these: 5 mM Aspartame (saturating concentration, the normalization reference); average of 2. Format: cell-based. The protocol: (§2) Methods: […] This cell line was derived from HEK293 cells. CNG136 was tested with several sweet receptor agonists and modulators including, Compound 6542888, Compound 3069733, and Aspartame. Response to 10 uM of 6542888 and 3069733 and 5 mM Aspartame was measured using a FLIPR384 instrument (Molecular Devices) and is reported in Table I below. Data were normalized to the maximum activity obtained with a saturating concentration of Aspartame (5 mM). Compounds were also tested on control (“Parental CNG”) cells lacking the human sweet GPCR.

For experiment [3], the target named is T2, human sweet receptor hT1R2/hT1R3 (Homo sapiens, UniProt Q7RTX0+Q8TE23).
T2 construct: host or cells: human embryonic kidney cells (earlier application U.S. Ser. No. 10/770,127)
T2 sequence (Q8TE23 20-839): T1 sequence (Q8TE23 20-839)
T2 sequence (Q7RTX0 21-852): T1 sequence (Q7RTX0 21-852)
As to the kind of experiment: Isoproterenol-induced calcium influx in HEK-293-oCNGC cells expressing hT1R2/hT1R3. The settings on record: PTX 100 ng/ml for 4 hours; 200 nM isoproterenol; 5 mM Aspartame, 2 mM Cyclamate, 4 mM Saccharin, 0.1 mM Neotame; FIG. 15. Format: cell-based. The protocol:
FIG. 13 contains the result of an experiment showing that increasing concentrations of sweeteners inhibit the isoproterenol-induced-calcium influx in HEK 293-oCNGC cells expressing the human sweet receptor hT1R2/hT1R3. Delta F/F values were normalized to the fluorescence obtained after stimulation with 200 nM isoproterenol. Each value corresponds to the mean ± SD of a triplicate determination.
Cells were left untreated (control) or treated with PTX for 4 hours at 100 ng/ml prior to the experiment. Cells were then stimulated with 200 nM isoproterenol in the presence or absence of the indicated sweeteners (5 mM Aspartame, 2 mM Cyclamate, 4 mM Saccharin and 0.1 mM Neotame).
as §1
An experiment was conducted to assess the effect of various sweeteners (known to activate the human T1R2/T1R3 sweet receptor) on isoproterenol-induced calcium influx in HEK-293—oCNGC cells that express the human T1R2/T1R3 sweet receptor. As shown by the results in FIG. 13, increasing concentrations of sweetener inhibits isoproterenol-induced calcium influx in these cells. (In the figure, Delta F/F values were normalized to the fluorescence obtained after stimulation with 200 nM isoproterenol and each value corresponds to the means ± SD of a triplicate determination). […]

The test system of experiment [4] is Parental CNG cells lacking the human sweet GPCR. The experiment is described as follows: Control Parental CNG cells lacking the human sweet GPCR, FLIPR384 response. The settings on record: 5 mM Aspartame, average of 2. Format: cell-based. The protocol: as §2
In experiment [5] the target is T3, mouse olfactory receptor, mOREG (Mus musculus, UniProt Q920P2).
T3 construct: expressed in transfected cells; host or cells: HEK-293, co-transfected with OCNC1[C458W/E581M], OCNC2 and β1b
T3 sequence (Q920P2 1-313): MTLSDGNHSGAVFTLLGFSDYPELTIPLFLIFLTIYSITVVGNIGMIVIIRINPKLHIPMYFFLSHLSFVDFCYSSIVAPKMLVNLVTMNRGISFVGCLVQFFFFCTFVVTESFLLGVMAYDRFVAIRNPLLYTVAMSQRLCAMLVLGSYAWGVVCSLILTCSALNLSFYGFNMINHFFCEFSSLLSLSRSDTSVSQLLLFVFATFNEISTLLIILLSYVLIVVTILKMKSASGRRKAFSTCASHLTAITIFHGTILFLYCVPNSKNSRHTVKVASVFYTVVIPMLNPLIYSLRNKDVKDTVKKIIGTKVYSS
The experiment is described as follows: Calcium dye fluorescence microscopy, HEK-293 cells transfected with mOREG and human olfactory CNG channel subunits. The settings on record: CNG channel dependent and mOREG dependent, FIG. 9. Format: cell-based. As for the experimental part: HEK-293 cells were transfected with OCNC1[C458W/E581FM], OCNC2, and β1band a mouse olfactory receptor, mOREG, that is activated by eugenol (Kajiya et al., 2001). Transfected cells were seeded onto multi-well plates. After 48 hours, cells were loaded with a calcium dye for one hour, then washed, and their response to eugenol stimulation was monitored by fluorescence microscopy.

Experiment [6] has as its system activity-enhanced human olfactory CNG channel. The experiment is described as follows: FLIPR calcium assay, HEK-293 cells stably expressing the activity-enhanced human olfactory CNG channel. It counts as cell-based. The settings on record: calcium dye; versus parent cells and wild type CNG subunits; FIG. 11. As for the experimental part:
The HEK-293 cells that stably express the activity-enhanced human olfactory CNG channel were seeded into FLIPR imaging plates 24 hours prior to the experiment, on plates pre-coated with matrigel. The cells were loaded with a fluorescent calcium dye for one hour, washed and transferred to a FL]PR automated fluorometric plate reader with on-board fluidics. […] Therefore, the cell-based assay is amenable to high throughput applications, especially with respect to low affinity modulators.

A further experiment has as its system HEK-293-oCNGC cells. As to the kind of experiment: Calcium influx in HEK-293-oCNGC cells on isoproterenol addition. Format: cell-based, human. The settings on record: increasing concentrations; FIG. 12. The protocol:
FIG. 12 contains the results of an experiment showing that increasing concentrations of isoproterenol induce calcium influx in HEK 293-oCNGC cells. Delta F/F corresponds to the maximum fluorescence value obtained after stimulation minus the minimum fluorescence measured before stimulation and normalized to the minimum fluorescence measure before stimulation.
as §1
This accumulation of CAMP induces oCNGC activation, which in turn causes extracellular calcium to flow inside the cells, resulting in a net increase of intracellular calcium concentration and a parallel increase of the fluorescence signal in the cells (FIG. 12).

Experiment [7] concerns human olfactory CNG channel. The experiment is described as follows: FLIPR calcium assay, HEK-293 cells stably expressing the human olfactory CNG channel. Format: cell-based. The conditions noted are these: calcium dye; versus parent cells; FIG. 11. The protocol:
The HEK-293 cells that stably express the human olfactory CNG channel were seeded into FLIPR imaging plates 24 hours prior to the experiment, on plates pre-coated with matrigel. The cells were loaded with a fluorescent calcium dye for one hour, washed and transferred to a FLIPR automated fluorometric plate reader with on-board fluidics. […] Therefore, the cell-based assay is amenable to high throughput applications.

Peptide text beside a SMILES is read from it.

As for `COC(=O)[C@H](Cc1ccccc1)NC(=O)[C@@H](N)CC(=O)O` [Aspartame] (H-Asp-Phe-OMe), the “effect on isoproterenol-induced calcium influx” value in experiment [1] is “unaffected”. For the same compound, in experiment [2], the “% Max Activity CNG136” value was determined as 100%. Besides, the “inhibition of isoproterenol-induced calcium influx after PTx pretreatment” value in experiment [3] is given as “prevented the inhibition”. Besides, the “% Activity CNG (Parental Cells)” value in experiment [4] is 0%.

`C=CCc1ccc(O)c(OC)c1` [Eugenol, eugenol]: the fluorescence response entry in experiment [5] is on record as “elicited fluorescence increases”.

Consider `CC(C)NCC(O)c1ccc(O)c(O)c1` (centres unmarked) [isoproterenol], for which the figures for the fluorescence response result in experiment [6] and in experiment [7] were “fluorescence similar to that observed with wild type CNG subunits” and “increased fluorescence”, respectively. For the same compound, the calcium influx result in the experiment on HEK-293-oCNGC cells is “in a dose-dependent manner”.
